Paper PMC10482975 (Nature Communications, 2023)
Residue numbers refer to the chain shown, from its start.

Assays:
[1] = biological target: T1, M3 mAChR WT (Homo sapiens, UniProt P20309); test: [3H]-NMS radioligand dissociation binding, M3 mAChR WT
T1 construct: expressed in transfected cells
Protocol: (§1) Flp-In Chinese hamster ovary (CHO) (Thermo Fisher Scientific) cells stably expressing mAChR WTs or mutant constructs were cultured in Dulbecco’s modified Eagle’s medium (DMEM, Invitrogen) containing 5% foetal bovine serum (FBS; ThermoTrace) and […] of hygromycin (Roche) in a humidified incubator (37 °C, 5% CO2). Upon reaching confluence, media was removed, cells were washed with phosphate buffered saline (PBS) and harvested from tissue culture flasks using versene (PBS with 0.2 g EDTA). Cells were then pelleted through centrifugation at 350 × g for three minutes followed by resuspension in DMEM + 5% FBS. Cells were then either plated for an assay or reseeded into a tissue culture flask.

[2] = biological target: T2, M4 mAChR WT (Homo sapiens, UniProt P08173); test: [3H]-NMS radioligand dissociation binding, M4 mAChR WT; conditions: for [3H]-NMS binding remaining (0 min = 100), MEAN: M4 mAChR
T2 construct: expressed in transfected cells
T2 sequence (P08173 1-479): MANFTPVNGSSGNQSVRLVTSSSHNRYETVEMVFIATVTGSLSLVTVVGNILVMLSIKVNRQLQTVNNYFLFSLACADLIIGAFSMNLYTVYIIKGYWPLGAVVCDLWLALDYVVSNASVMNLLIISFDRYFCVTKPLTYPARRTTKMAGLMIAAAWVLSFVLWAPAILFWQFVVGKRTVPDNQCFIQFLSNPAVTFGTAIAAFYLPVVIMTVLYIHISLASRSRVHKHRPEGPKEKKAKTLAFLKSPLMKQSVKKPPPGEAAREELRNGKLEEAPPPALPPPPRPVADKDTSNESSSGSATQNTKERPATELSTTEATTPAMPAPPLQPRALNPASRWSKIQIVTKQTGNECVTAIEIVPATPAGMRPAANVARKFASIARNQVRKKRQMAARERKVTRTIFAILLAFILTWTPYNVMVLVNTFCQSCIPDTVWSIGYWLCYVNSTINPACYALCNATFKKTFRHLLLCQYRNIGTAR
Protocol: as §1

[3] = biological target: T3, M4 mAChR F186A (Homo sapiens, UniProt P08173, F186A); test: [3H]-NMS radioligand dissociation binding, M4 mAChR F186A; conditions: for [3H]-NMS binding remaining (0 min = 100), MEAN: M4 F186A mAChR
T3 construct: expressed in transfected cells
T3 sequence (P08173 1-479 F186A): T2 sequence (P08173 1-479) with F186A
Protocol: as §1

[4] = biological target: T4, M5 mAChR WT (Homo sapiens, UniProt P08912); test: [3H]-NMS radioligand dissociation binding, M5 mAChR WT
T4 construct: expressed in transfected cells
T4 sequence (P08912 1-532): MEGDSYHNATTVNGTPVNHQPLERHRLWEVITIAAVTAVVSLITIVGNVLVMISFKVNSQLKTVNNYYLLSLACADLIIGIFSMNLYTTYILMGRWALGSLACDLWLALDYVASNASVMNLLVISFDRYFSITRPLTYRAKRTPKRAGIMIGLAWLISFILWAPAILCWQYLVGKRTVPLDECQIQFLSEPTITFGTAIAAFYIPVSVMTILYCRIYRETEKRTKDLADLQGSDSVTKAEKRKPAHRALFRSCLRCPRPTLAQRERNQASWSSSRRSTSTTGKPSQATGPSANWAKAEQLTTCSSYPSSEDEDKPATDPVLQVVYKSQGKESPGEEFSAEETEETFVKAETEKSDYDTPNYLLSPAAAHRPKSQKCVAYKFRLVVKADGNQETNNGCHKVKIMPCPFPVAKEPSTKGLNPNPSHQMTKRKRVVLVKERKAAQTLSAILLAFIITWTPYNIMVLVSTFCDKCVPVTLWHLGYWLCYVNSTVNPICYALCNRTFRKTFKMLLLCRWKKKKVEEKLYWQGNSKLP
Protocol: as §1

T1 sequence (P20309 whole entry): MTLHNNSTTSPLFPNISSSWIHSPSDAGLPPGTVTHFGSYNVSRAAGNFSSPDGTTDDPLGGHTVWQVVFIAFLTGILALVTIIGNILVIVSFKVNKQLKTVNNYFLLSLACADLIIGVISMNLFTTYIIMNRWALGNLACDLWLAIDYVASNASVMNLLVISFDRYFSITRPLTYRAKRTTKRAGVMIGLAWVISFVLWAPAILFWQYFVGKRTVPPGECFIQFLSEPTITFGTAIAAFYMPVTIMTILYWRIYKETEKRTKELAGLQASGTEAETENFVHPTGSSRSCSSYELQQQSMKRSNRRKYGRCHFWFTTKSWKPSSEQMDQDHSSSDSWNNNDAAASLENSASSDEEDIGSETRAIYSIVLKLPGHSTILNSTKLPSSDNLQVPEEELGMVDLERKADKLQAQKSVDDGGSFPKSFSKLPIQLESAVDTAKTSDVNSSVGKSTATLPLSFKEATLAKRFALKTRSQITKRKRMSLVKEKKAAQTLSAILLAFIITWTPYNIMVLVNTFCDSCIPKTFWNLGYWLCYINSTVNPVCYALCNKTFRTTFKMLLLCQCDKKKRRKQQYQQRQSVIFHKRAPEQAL

`CCCCCCOc1nsnc1C1=CCCN(C)C1` [xanomeline] was tested, and the IC50 [1] was 182 µM, the “allosteric effect on [3H]-NMS dissociation (in words)” value ([1]; M3 mAChR) was “modest” and the “[3H]-NMS binding remaining (0 min = 100), MEAN” value (shortened to “[3H]-NMS binding remaining”) ([1]; M3 mAChR, 10uM Atr + 10 μM Xano, 10 min) was 102.824. The “[3H]-NMS binding remaining” value ([1]; M3 mAChR, 10uM Atr + 10 μM Xano, 15 min) was 94.4472, the “[3H]-NMS binding remaining” value ([1]; M3 mAChR, 10uM Atr + 10 μM Xano, 30 min) was 84.3079 and the “[3H]-NMS binding remaining” value ([1]; M3 mAChR, 10uM Atr + 10 μM Xano, 90 min) was 53.078. For the same compound, the “[3H]-NMS binding remaining” value ([1]; M3 mAChR, 10uM Atr + 10 μM Xano, 120 min) was 40.5004, the “[3H]-NMS binding remaining” value ([1]; M3 mAChR, 10uM Atr + 10 μM Xano, 210 min) was 20.6349 and the “[3H]-NMS binding remaining” value ([1]; M3 mAChR, 10uM Atr + 30 μM Xano, 10 min) was 103.273. The “[3H]-NMS binding remaining” value ([1]; M3 mAChR, 10uM Atr + 30 μM Xano, 15 min) was 95.5713, the “[3H]-NMS binding remaining” value ([1]; M3 mAChR, 10uM Atr + 30 μM Xano, 30 min) was 87.9383 and the “[3H]-NMS binding remaining” value ([1]; M3 mAChR, 10uM Atr + 30 μM Xano, 90 min) was 53.4947. The “[3H]-NMS binding remaining” value ([1]; M3 mAChR, 10uM Atr + 30 μM Xano, 120 min) was 41.606, the “[3H]-NMS binding remaining” value ([1]; M3 mAChR, 10uM Atr + 30 μM Xano, 210 min) was 24.8398 and the “[3H]-NMS binding remaining” value ([1]; M3 mAChR, 10uM Atr + 100uM Xano, 10 min) was 100.762. For the same compound, the “[3H]-NMS binding remaining” value ([1]; M3 mAChR, 10uM Atr + 100uM Xano, 15 min) was 94.0238, the “[3H]-NMS binding remaining” value ([1]; M3 mAChR, 10uM Atr + 100uM Xano, 30 min) was 90.7523 and the “[3H]-NMS binding remaining” value ([1]; M3 mAChR, 10uM Atr + 100uM Xano, 90 min) was 62.8848. For the same compound, the “[3H]-NMS binding remaining” value ([1]; M3 mAChR, 10uM Atr + 100uM Xano, 120 min) was 45.8052, the “[3H]-NMS binding remaining” value ([1]; M3 mAChR, 10uM Atr + 100uM Xano, 210 min) was 29.7551 and the “[3H]-NMS binding remaining” value ([2]; 10uM Atr + 10 μM Xano, 30 min) was 87.1248. For the same compound, the “[3H]-NMS binding remaining” value ([2]; 10uM Atr + 10 μM Xano, 90 min) was 63.7927, the “[3H]-NMS binding remaining” value ([2]; 10uM Atr + 10 μM Xano, 180 min) was 32.9493 and the “[3H]-NMS binding remaining” value ([2]; 10uM Atr + 10 μM Xano, 300 min) was 16.1247. For the same compound, the “[3H]-NMS binding remaining” value ([2]; 10uM Atr + 30 μM Xano, 30 min) was 96.6093, the “[3H]-NMS binding remaining” value ([2]; 10uM Atr + 30 μM Xano, 90 min) was 68.5782 and the “[3H]-NMS binding remaining” value ([2]; 10uM Atr + 30 μM Xano, 180 min) was 42.1853. The “[3H]-NMS binding remaining” value ([2]; 10uM Atr + 30 μM Xano, 300 min) was 23.6351, the “[3H]-NMS binding remaining” value ([2]; 10uM Atr + 100uM Xano, 30 min) was 97.9496 and the “[3H]-NMS binding remaining” value ([2]; 10uM Atr + 100uM Xano, 60 min) was 79.6399. The “[3H]-NMS binding remaining” value ([2]; 10uM Atr + 100uM Xano, 180 min) was 54.7449, the “[3H]-NMS binding remaining” value ([2]; 10uM Atr + 100uM Xano, 300 min) was 34.2485 and the “effect on [3H]-NMS dissociation (in words)” value ([2]; wild-type M4 mAChR, increasing concentrations of xanomeline, saturating concentration of iperoxo) was “progressively slowed”. The “[3H]-NMS binding remaining” value ([3]; 10uM Atr + 30 μM Xano, 30 min) was 78.1603, the “[3H]-NMS binding remaining” value ([3]; 10uM Atr + 30 μM Xano, 90 min) was 48.8248 and the “[3H]-NMS binding remaining” value ([3]; 10uM Atr + 30 μM Xano, 180 min) was 47.3729. For the same compound, the “[3H]-NMS binding remaining” value ([3]; 10uM Atr + 100uM Xano, 30 min) was 72.0364, the “[3H]-NMS binding remaining” value ([3]; 10uM Atr + 100uM Xano, 90 min) was 60.4086 and the “[3H]-NMS binding remaining” value ([3]; 10uM Atr + 100uM Xano, 180 min) was 46.0676. The “[3H]-NMS binding remaining” value ([3]; 10uM Atr + 100uM Xano, 300 min) was 23.3758, the “effect on [3H]-NMS dissociation (in words)” value ([3]; M4 mAChR F186A mutant) was “no longer retarded” and the “allosteric effect on [3H]-NMS dissociation (in words)” value [4] was “modest”. The “[3H]-NMS binding remaining” value ([4]; 10uM Atr + 10 μM Xano, 10 min) was 90.3151, the “[3H]-NMS binding remaining” value ([4]; 10uM Atr + 10 μM Xano, 15 min) was 91.7238 and the “[3H]-NMS binding remaining” value ([4]; 10uM Atr + 10 μM Xano, 30 min) was 85.9775. For the same compound, the “[3H]-NMS binding remaining” value ([4]; 10uM Atr + 10 μM Xano, 90 min) was 67.8458, the “[3H]-NMS binding remaining” value ([4]; 10uM Atr + 10 μM Xano, 120 min) was 51.752 and the “[3H]-NMS binding remaining” value ([4]; 10uM Atr + 10 μM Xano, 210 min) was 35.86. The “[3H]-NMS binding remaining” value ([4]; 10uM Atr + 30 μM Xano, 10 min) was 92.3387, the “[3H]-NMS binding remaining” value ([4]; 10uM Atr + 30 μM Xano, 15 min) was 85.7238 and the “[3H]-NMS binding remaining” value ([4]; 10uM Atr + 30 μM Xano, 30 min) was 100.331. The “[3H]-NMS binding remaining” value ([4]; 10uM Atr + 30 μM Xano, 90 min) was 61.0136, the “[3H]-NMS binding remaining” value ([4]; 10uM Atr + 30 μM Xano, 120 min) was 51.9105 and the “[3H]-NMS binding remaining” value ([4]; 10uM Atr + 30 μM Xano, 210 min) was 31.039. The “[3H]-NMS binding remaining” value ([4]; 10uM Atr + 100uM Xano, 10 min) was 94.3264, the “[3H]-NMS binding remaining” value ([4]; 10uM Atr + 100uM Xano, 15 min) was 90.317 and the “[3H]-NMS binding remaining” value ([4]; 10uM Atr + 100uM Xano, 30 min) was 106.159. For the same compound, the “[3H]-NMS binding remaining” value ([4]; 10uM Atr + 100uM Xano, 90 min) was 76.4682, the “[3H]-NMS binding remaining” value ([4]; 10uM Atr + 100uM Xano, 120 min) was 67.0445 and the “[3H]-NMS binding remaining” value ([4]; 10uM Atr + 100uM Xano, 210 min) was 42.1563.
